In series [1] the target is T1, N-acetylneuraminic acid aldolase (Escherichia coli, UniProt P0A6L4). The series is described as follows: Kinetic study of the aldolase-catalysed ManNAc/F-pyr reaction (Equation 1, non-linear regression of initial-rate data).
Series [2] addresses T1, N-acetylneuraminic acid aldolase. As to conditions: value given in the literature; read-out: Km value for the standard ManNAc/Pyr reaction; cited from earlier work.
For series [3], the system named is O=C(O)C(=O)CF. The series is described as follows: purified protein, by the assay type. As to conditions: other: ManNAc/F-pyr reaction, 24 U*/ml aldolase, pH 7.5, 25° C.

pKi: −log10 of the molar value.

The source of these data is patent US6355453B1, “Method for making fluorinated sugars having a side chain and use thereof” (Forschungszentrum Julich GmbH, priority 1998, dated 2002).

A word on the pKi: it is the negative decadic logarithm of the Ki, by convention in mol/L. The low end stands for a large Ki, the high end for a small Ki. Turning to `O=C(O)C(=O)CF` [F-Pyr, 1-fluoro-2-oxopropanoic acid], the pKi in series [1] is 1.31. The “maximal activity of the reaction” value in series [1] (enzyme charge of >24 U*/mg) was found to be 0.9 U/mg.

Consider `CC(=O)C(=O)O` [Pyr, pyruvic acid], for which the Km in series [2] is 8.5 mM.

On to “N-acetylneuraminic acid aldolase (Escherichia coli K-12)”, for which the Km in series [3] amounted to 41 mM.
